In patent publication US20020137929A1, “1 - (3-heterocyclylphenyl) isothiourea, -isourea, -guanidine and -amidine herbicidal agents” (Intellectual Property Department, BASF Aktiengesellschaft, priority 1998, published 2002):

Legend:
[1] = system: ECHCG (Barnyardgrass); experiment: Preemergence herbicidal evaluation; format: in vivo, Echinochloa crus-galli; conditions: rated 4-5 weeks after treatment
Procedure, shortened: (§1)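 Steps: mix seeds into potting soil; plant atop ~1 inch soil; spray compound in aqueous acetone (~0.0156-0.500 kg/ha equivalent); maintain in greenhouse with watering; rate visually 0-9 versus control at 4-5 weeks.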

[2] = system: MOOVA (Monochoria); experiment: Postemergence weed control under flooded paddy conditions; format: in vivo, Monochoria vaginalis; conditions: postemergence weeds, 3-4 weeks after treatment
Procedure, shortened: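 Injury ratings (0–9 scale covering stand, vigor, malformation, size, chlorosis and overall appearance versus control) were made three to four weeks after treatment. Test material, about 0.0313 to 0.500 kg/ha a.i. in 50/50 v/v aqueous/acetone, was added to flood water 1.5 to 3 cm deep over 3 to 5 cm weeds and 1.5 to 2.5 leaf rice.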

[3] = system: GLXMA (Soybean); experiment: Preemergence herbicidal evaluation; format: in vivo, Glycine max; conditions: rated 4-5 weeks after treatment
Text: Results of herbicide evaluation are expressed on a rating scale (0-9). The scale is based upon a visual observation of plant stand, vigor, malformation, size, chlorosis and overall plant appearance as compared with a control.
The preemergence herbicidal activity of the test compounds of the present invention is exemplified by the following tests in which the seeds of a variety of monocotyledonous and dicotyledonous plants are separately mixed with potting soil and planted on top of approximately one inch of soil in separate pint cups. After planting, the cups are sprayed with the selected aqueous acetone solution containing test compound in sufficient quantity to provide the equivalent of about 0.0156 to 0.500 kg per hectare of test compound per cup. The treated cups are then placed on greenhouse benches, watered and cared for in accordance with conventional greenhouse procedures. From four to five weeks after treatment, the tests are terminated and each cup is examined and rated according to the rating system provided in Example 37.
The compounds evaluated are reported by compound number given in Example 37.

[4] = system: ORYSAT (Rice, Tebonnet); experiment: Rice tolerance to post-transplant applications, flooded paddy conditions (Table III); format: in vivo, Oryza sativa, (L.) Tebonnet; conditions: in vivo
Procedure, shortened: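 Injury scored 0-9 by eye against untreated control, judging stand, vigor, malformation, size and chlorosis, three to four weeks after treatment. Compound in 50/50 aqueous/acetone, about 0.0313 to 0.500 kg/ha, was applied to paddy water (1.5 to 3 cm depth) three days after transplanting paired ten-day-old Tebonnet rice seedlings.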

[5] = system: ORYSAT (Rice, Tebonnet); experiment: Rice tolerance to post-transplant applications, flooded paddy conditions (Table IV); format: in vivo, Oryza sativa, (L.) Tebonnet; conditions: in vivo
Procedure, shortened: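 With weeds 3 to 5 cm tall and rice at the 1.5 to 2.5 leaf stage, containers were flooded and water held 1.5 to 3 cm above soil. Compounds in 50/50 v/v aqueous/acetone went into the flood water at about 0.0313 to 0.500 kg/ha a.i. Effects were visually rated 0–9 against controls after three to four weeks in the greenhouse.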

[6] = system: GLXMAW (Soybean, Williams); experiment: Preemergence herbicidal evaluation; format: in vivo, Glycine max, (L.) Merr. cv Williams; conditions: rated 4-5 weeks after treatment
Procedure, shortened: as §1

[7] = system: CHEAL (Lambsquarters, Common); experiment: Postemergence herbicidal evaluation; format: in vivo, Chenopodium album; conditions: postemergence
Procedure, shortened: (§2)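 Visual 0-9 injury score (stand, vigor, malformation, size, chlorosis, appearance vs untreated) taken four to five weeks post-spray, averaged across repeat tests. Test plants about two weeks old; foliar spray of acetone/water (1:1) with 0.5% surfactant delivering ~0.0156-0.500 kg active/ha.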

[8] = system: IPOHE (Morningglory, Ivyleaf); experiment: Postemergence herbicidal evaluation; format: in vivo, Ipomoea hederacea; conditions: postemergence
Procedure, shortened: as §2

[9] = system: GALAP (Galium); experiment: Preemergence herbicidal evaluation; format: in vivo, Galium aparine; conditions: rated 4-5 weeks after treatment
Procedure, shortened: as §1

CCOC(=O)CN1C(=O)C(CC(=O)O)S/C1=N/c1cc(-n2c(=O)cc(C(F)(F)F)n(C)c2=O)c(F)cc1Cl (stereo not shown) [Compound 16]
ECHCG preemergence herbicidal rating ([1]; rate 0.0156 kg/ha): 0.0 | ECHCG preemergence herbicidal rating ([1]; rate 0.0313 kg/ha): 0.3 | ECHCG preemergence herbicidal rating ([1]; rate 0.0625 kg/ha): 0.6 | ECHCG preemergence herbicidal rating ([1]; rate 0.1250 kg/ha): 1.8 | ECHCG preemergence herbicidal rating ([1]; rate 0.2500 kg/ha): 4.4 | ECHCG preemergence herbicidal rating ([1]; rate 0.5000 kg/ha): 7.1 | Herbicidal rating MOOVA ([2]; rate 0.0313 kg/ha): 9.0 | Herbicidal rating MOOVA ([2]; rate 0.0625 kg/ha): 9.0 | Herbicidal rating MOOVA ([2]; rate 0.1250 kg/ha): 9.0 | Herbicidal rating MOOVA ([2]; rate 0.2500 kg/ha): 3.0 | GLXMA preemergence herbicidal rating ([3]; rate 0.0156 kg/ha): 0.0 | GLXMA preemergence herbicidal rating ([3]; rate 0.0313 kg/ha): 0.0 | GLXMA preemergence herbicidal rating ([3]; rate 0.0625 kg/ha): 2.0 | GLXMA preemergence herbicidal rating ([3]; rate 0.1250 kg/ha): 2.0 | GLXMA preemergence herbicidal rating ([3]; rate 0.2500 kg/ha): 3.5 | GLXMA preemergence herbicidal rating ([3]; rate 0.5000 kg/ha): 7.0 | Herbicidal rating ORYSAT (rice tolerance) [4]: 0.0 | Herbicidal rating ORYSAT (rice tolerance) [5]: 0.0 | GLXMAW preemergence herbicidal rating ([6]; rate 0.0156 kg/ha): 0.5 | GLXMAW preemergence herbicidal rating ([6]; rate 0.0313 kg/ha): 0.7 | GLXMAW preemergence herbicidal rating ([6]; rate 0.0625 kg/ha): 1.5 | GLXMAW preemergence herbicidal rating ([6]; rate 0.1250 kg/ha): 4.5 | GLXMAW preemergence herbicidal rating ([6]; rate 0.2500 kg/ha): 7.7 | GLXMAW preemergence herbicidal rating ([6]; rate 0.5000 kg/ha): 9.0 | CHEAL herbicidal rating ([7]; rate 0.0157 kg/ha): 9.0 | CHEAL herbicidal rating ([7]; rate 0.0313 kg/ha): 8.2 | CHEAL herbicidal rating ([7]; rate 0.0625 kg/ha): 9.0 | CHEAL herbicidal rating ([7]; rate 0.1250 kg/ha): 9.0 | CHEAL herbicidal rating ([7]; rate 0.2500 kg/ha): 9.0 | IPOHE herbicidal rating ([8]; rate 0.0157 kg/ha): 9.0 | IPOHE herbicidal rating ([8]; rate 0.0313 kg/ha): 9.0 | IPOHE herbicidal rating ([8]; rate 0.0625 kg/ha): 9.0 | IPOHE herbicidal rating ([8]; rate 0.1250 kg/ha): 9.0 | IPOHE herbicidal rating ([8]; rate 0.2500 kg/ha): 9.0 | GALAP preemergence herbicidal rating ([9]; rate 0.0156 kg/ha): 1.2 | GALAP preemergence herbicidal rating ([9]; rate 0.0313 kg/ha): 2.0 | GALAP preemergence herbicidal rating ([9]; rate 0.0625 kg/ha): 4.8 | GALAP preemergence herbicidal rating ([9]; rate 0.1250 kg/ha): 6.4 | GALAP preemergence herbicidal rating ([9]; rate 0.2500 kg/ha): 8.2 | GALAP preemergence herbicidal rating ([9]; rate 0.5000 kg/ha): 9.0
